According to US10238676B2, “Application of ginsenoside RG3 in preparing medicine for preventing and/or treating dementia, and medicine for treating dementia” (priority 2013, dated 2019):

Legend:
[1] = tested on: intracerebral cholinergic nerve system of rat model with Alzheimer's disease; assay: AChE positive nerve fiber density of cortex and hippocampal formation, rat model with Alzheimer's disease (D-galactose + IBO); type: in vivo, Wistar rats; conditions: AD model rats, 6 weeks; for N Frontal lobe AchE positive nerve fiber density: Rg3 lotion (embodiment 7) on both sides of nose; for N Entorhinal cortex AchE positive nerve fiber density / N Occipital lobe AchE positive nerve fiber density / Parietal lobe AchE positive nerve fiber density / N Stratum lacunosum-moleculare AchE positive nerve fiber density / N Stratum moleculare of dentate gyrus AchE positive nerve fiber density / N Stratum oriens AchE positive nerve fiber density / N Stratum radiatum AchE positive nerve fiber density: Rg3 lotion topical; for N Stratum lacunosum-moleculare AchE positive nerve fiber density / N Stratum moleculare of dentate gyrus AchE positive nerve fiber density / N Stratum oriens AchE positive nerve fiber density / N Stratum radiatum AchE positive nerve fiber density: hippocampal formation
Description: 60 Wistar rats each of which having the body weight of 300-500 g are randomly divided into 6 groups, with 10 in each group, and the groups are named a preliminary elder normal control group, a preliminary elder AD model group, a positive medicine Huperzine A group, and high-dose, medium-dose and low-dose of Ginsenoside Rg3 topical preparation groups according to different treatment methods, respectively. The rats are bred in separate cages, each holding 4-5 rats, with natural lighting and random drinking and feeding provided. Physiological saline is injected in the abdominal cavity and grain of each rat in the preliminary elder normal control group; Galactose intraperitoneal injection and IBO intracerebral injection are given to all rats in the preliminary elder AD model group, the positive medicine Huperzine A group, and the high-dose, medium-dose and low-dose Ginsenoside Rg3 topical preparation groups; while the rats in the Huperzine A group and the high-dose, medium-dose and low-dose of Ginsenoside Rg3 topical preparation groups are subjected to D-galactose injection for modeling, rat of each group is given Huperzine A 0.3 mg/kg/d and Ginsenoside Rg3 10, 5, 2.5 mg/kg/d respectively. Ginsenoside Rg3 is applied to both sides of the nose of each rat of Ginsenoside Rg3 topical preparation groups. All the rats are subjected to the medicines continuously for 6 weeks and then intracerebral bilateral Meynert nuclei injection is carried out. Reference is made to a rat cerebral stereotaxic atlas for Meynert nuclei localization, and localization coordinates are AP-0.8 mm, Late 2.6 mm and DV 8.2 mm During intracerebral injection, a rat is anesthetized with 3% pentobarbital sodium (30 mg/kg) and then immobilized to a cerebral stereotaxic apparatus, physiological saline dissolved IBO (injection 1 μl for each side containing 5 μg of IBO) or 1 μl normal saline is injected slowly into a Meynert nucleus, each side takes injection for 5 minutes, and needle retaining for 10 minutes, wherein all the rats are subjected to cerebral perfusion with 4% paraformaldehyde after modeling and are then immobilized for 24 hours, and the brain is put in a sucrose phosphate buffer until brain tissue blocks sink, the blocks are frozen in a incubator and serially sectioned to […] in thickness. The sections are subjected to acetycholinesterase (AChE) histochemical staining by methods recommended by Hedreen, et al. Observation is given to the frontal lobe, the parietal lobe, the occipital lobe and the entorhinal cortex (layer II) as well as parts in a hippocampal CA1 region of the hippocampal formation such as a stratum oriens, a stratum radiatum, a stratum lacunosum-moleculare and a stratum moleculare of dentate gyrus for observing their AChE positive nerve fiber densities, and the AChE positive nerve fiber densities are counted with a number of intersections of positive fibers with a standard grid by using a micrometer used for a microscope.
A significance level a is equal to 0.05.

β-amyloid protein (Aβ) = assay: Cerebrospinal fluid β-amyloid protein content (ELISA) of patients with Alzheimer's disease; type: in vivo, human; conditions: AD inpatients
Description: (§1) 2 ml of cerebrospinal fluid is collected by lumbar puncture, and is stored at −80° C., the β-amyloid protein (Aβ) content is determined by using enzyme-linked immunosorbent assay (ELISA). A revised Hasegawa dementia scale (HDS-R) is used to score, and the scores before and after treatment are compared, increasing in scores means validness, and unchanging or decreasing in scores means invalidness. The enumeration data adopts χ^2 test, the comparison of measurement data adopts t-test, all data is processed by adopting SPSS12.0 statistical software.

[2] = tested on: patients with Alzheimer's disease; assay: Revised Hasegawa dementia scale (HDS-R) scoring of patients with Alzheimer's disease; type: in vivo, human
Description: as §1, with “Both groups take medicine for 12 continuous weeks. 2 ml” for “2 ml”
Analysis on the clinical therapeutic effect of the two groups.

[3] = cited from earlier work
[4] = cited from earlier work; remark: listed apart in the source
[5] = of 18 patients per group, 12 weeks

## CC(C)=CCC[C@](C)(O)[C@H]1CC[C@]2(C)[C@@H]1[C@H](O)C[C@@H]1[C@@]3(C)CC[C@H](O[C@@H]4O[C@H](CO)[C@@H](O)[C@H](O)[C@H]4O[C@@H]4O[C@H](CO)[C@@H](O)[C@H](O)[C@H]4O)C(C)(C)[C@@H]3CC[C@]12C [Ginsenoside Rg3, 20(R)-ginsenoside Rg3]
[1]; 2.5 mg/kg/d
  N Frontal lobe AchE positive nerve fiber density: 122.7 ± 18.6^Δ 10^2 · mm^−2
  N Entorhinal cortex AchE positive nerve fiber density: 130.2 ± 15.6 10^2 · mm^−2
  N Occipital lobe AchE positive nerve fiber density: 145.2 ± 9.2^ΔΔ** 10^2 · mm^−2
  Parietal lobe AchE positive nerve fiber density: 162.9 ± 22.0^#** 10^2 · mm^−2
  N Stratum lacunosum-moleculare AchE positive nerve fiber density: 77.2 ± 9.1^ΔΔ** 10^2 · mm^−2
  N Stratum moleculare of dentate gyrus AchE positive nerve fiber density: 119.8 ± 12.4 10^2 · mm^−2
  N Stratum oriens AchE positive nerve fiber density: 140.1 ± 20.5^Δ 10^2 · mm^−2
  N Stratum radiatum AchE positive nerve fiber density: 122.4 ± 14.4^#** 10^2 · mm^−2
[1]; 5 mg/kg/d
  N Frontal lobe AchE positive nerve fiber density: 130.7 ± 20.8^Δ 10^2 · mm^−2
  N Entorhinal cortex AchE positive nerve fiber density: 142.6 ± 11.9 10^2 · mm^−2
  N Occipital lobe AchE positive nerve fiber density: 160.2 ± 10.2^ΔΔ** 10^2 · mm^−2
  Parietal lobe AchE positive nerve fiber density: 170.9 ± 21.2^#** 10^2 · mm^−2
  N Stratum lacunosum-moleculare AchE positive nerve fiber density: 84.2 ± 10.9^ΔΔ** 10^2 · mm^−2
  N Stratum moleculare of dentate gyrus AchE positive nerve fiber density: 131.5 ± 14.7 10^2 · mm^−2
  N Stratum oriens AchE positive nerve fiber density: 153.0 ± 22.1^Δ 10^2 · mm^−2
  N Stratum radiatum AchE positive nerve fiber density: 135.1 ± 23.9^#** 10^2 · mm^−2
[1]; 10 mg/kg/d
  N Frontal lobe AchE positive nerve fiber density: 143.7 ± 22.1^Δ 10^2 · mm^−2
  N Entorhinal cortex AchE positive nerve fiber density: 161.1 ± 18.3^ΔΔ**° 10^2 · mm^−2
  N Occipital lobe AchE positive nerve fiber density: 167.2 ± 12.9^ΔΔ**° 10^2 · mm^−2
  Parietal lobe AchE positive nerve fiber density: 183.9 ± 24.9^#**° 10^2 · mm^−2
  N Stratum lacunosum-moleculare AchE positive nerve fiber density: 99.2 ± 17.3^Δ 10^2 · mm^−2
  N Stratum moleculare of dentate gyrus AchE positive nerve fiber density: 142.7 ± 11.9 10^2 · mm^−2
  N Stratum oriens AchE positive nerve fiber density: 171.1 ± 16.9^Δ 10^2 · mm^−2
  N Stratum radiatum AchE positive nerve fiber density: 143.2 ± 20.5^ΔΔ 10^2 · mm^−2
β-amyloid protein (Aβ); n = 18, Rg3 oral liquid 10 mg/d or donepezil 5 mg/d orally, 12 weeks
  Aβ content in cerebrospinal fluid, post treatment: 3.8 ± 1.5
β-amyloid protein (Aβ); n = 18 per group, baseline
  Aβ content in cerebrospinal fluid, before treatment: 5.9 ± 2.6
[2]; 18 AD patients per group, Rg3 oral liquid 10 mg/d or donepezil 5 mg/d, 12 weeks
  effective rate (patients increased in HDS-R scores): 77.8%
[2]; AD inpatients, n = 18, Rg3 oral liquid 10 mg/d or donepezil 5 mg/d orally, 12 weeks
  Scores of clinical symptom (HDS-R), post treatment: 18.7 ± 8.1^#Δ
[2]; AD inpatients, n = 18 per group, baseline
  Scores of clinical symptom (HDS-R), before treatment: 12.3 ± 5.2
[2]; [5]
  number of patients constant in scores: 3
  number of patients decreased in scores: 1
  number of patients increased in scores of clinical symptom: 14
[3]; animal pharmacokinetic experiments, oral preparations
  medicine in native form not absorbed and excreted through feces: about 80%
[3]; oral
  oral absorption percentage: about 10.28%
[4]
  lipid solubility and water solubility: relatively poor
